Data reported in publication PMC8284461, “Piperidine-4-Carboxamides Target DNA Gyrase in Mycobacterium abscessus” (Antimicrobial Agents and Chemotherapy, 2021).

Legend:
[1] = test system: M. abscessus subsp. abscessus ATCC 19977; assay: Time-concentration kill assay, planktonic cultures; format: cell-based, Mycobacterium abscessus; settings: 1×, 4×, 8× MIC; CFU after 2 and 3 days
Description: At 0, 2, and 3 days, tubes were vortexed, and 20 μl of the cultures was transferred to round-bottom 96-well plates containing 180 μl of phosphate-buffered saline (PBS) (10010023; Thermo Fisher, USA) with 0.025% Tween 80 (PBS/Tween 80) for 10-fold serial dilution. To prevent compound carryover effects, we plated out serially diluted samples onto 7H10 agar supplemented with 0.4% activated charcoal (C9154; Sigma-Aldrich, USA) for all time points as described ([48]). CFU were enumerated after 4 days of incubation at 37°C.

[2] = molecular target: GyrA D91N mutant recombinant M. abscessus DNA gyrase (Mycobacteroides abscessus, UniProt B1ME45+B1ME58, D91N); format: biochemical, Mycobacterium abscessus; settings: GyrA D91N mutant DNA gyrase, up to 50 μM
GyrA D91N mutant recombinant M. abscessus DNA gyrase, sequence (B1ME58 2-839, stated change not applied): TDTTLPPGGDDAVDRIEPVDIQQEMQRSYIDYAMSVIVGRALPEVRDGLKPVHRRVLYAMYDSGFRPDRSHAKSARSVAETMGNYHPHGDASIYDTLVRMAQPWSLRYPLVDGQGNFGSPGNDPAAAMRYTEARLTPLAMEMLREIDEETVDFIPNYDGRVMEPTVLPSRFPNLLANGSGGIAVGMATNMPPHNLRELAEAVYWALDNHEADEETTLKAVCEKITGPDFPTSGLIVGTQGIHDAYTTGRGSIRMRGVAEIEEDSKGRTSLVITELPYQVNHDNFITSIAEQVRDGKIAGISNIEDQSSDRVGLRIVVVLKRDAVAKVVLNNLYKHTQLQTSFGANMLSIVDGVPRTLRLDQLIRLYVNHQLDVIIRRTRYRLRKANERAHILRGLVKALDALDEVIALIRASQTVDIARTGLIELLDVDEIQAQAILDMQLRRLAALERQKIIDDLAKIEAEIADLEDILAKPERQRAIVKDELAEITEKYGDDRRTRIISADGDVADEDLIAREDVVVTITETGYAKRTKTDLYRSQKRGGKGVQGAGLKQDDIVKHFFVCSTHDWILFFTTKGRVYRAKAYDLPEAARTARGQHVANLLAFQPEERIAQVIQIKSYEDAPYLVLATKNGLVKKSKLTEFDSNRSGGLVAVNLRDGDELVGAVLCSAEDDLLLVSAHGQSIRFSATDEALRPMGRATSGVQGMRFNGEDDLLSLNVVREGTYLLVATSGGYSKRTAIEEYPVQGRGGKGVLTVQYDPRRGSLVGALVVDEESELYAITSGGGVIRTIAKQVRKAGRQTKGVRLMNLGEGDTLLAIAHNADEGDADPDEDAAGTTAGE
GyrA D91N mutant recombinant M. abscessus DNA gyrase, sequence (B1ME45 2-675, stated change not applied): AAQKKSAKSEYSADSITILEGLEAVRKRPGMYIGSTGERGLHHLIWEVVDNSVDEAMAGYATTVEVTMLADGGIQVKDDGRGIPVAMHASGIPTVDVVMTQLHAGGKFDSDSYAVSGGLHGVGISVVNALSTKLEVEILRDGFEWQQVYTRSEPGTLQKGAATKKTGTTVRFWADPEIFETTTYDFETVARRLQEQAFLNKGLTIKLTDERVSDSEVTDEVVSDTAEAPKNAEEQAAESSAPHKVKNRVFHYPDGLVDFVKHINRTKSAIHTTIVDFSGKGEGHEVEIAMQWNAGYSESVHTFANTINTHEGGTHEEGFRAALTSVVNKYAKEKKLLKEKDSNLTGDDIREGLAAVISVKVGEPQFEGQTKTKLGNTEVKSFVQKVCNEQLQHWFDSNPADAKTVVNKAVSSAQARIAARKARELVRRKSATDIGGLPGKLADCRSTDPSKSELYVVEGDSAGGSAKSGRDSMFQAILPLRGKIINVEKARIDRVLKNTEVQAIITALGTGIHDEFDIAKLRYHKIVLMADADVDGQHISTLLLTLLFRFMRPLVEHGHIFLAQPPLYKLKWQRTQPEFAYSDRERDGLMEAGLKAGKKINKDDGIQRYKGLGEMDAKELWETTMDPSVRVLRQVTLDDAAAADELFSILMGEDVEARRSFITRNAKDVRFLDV

Compound: COc1ccc2nccc(NC(=O)C3CCN(CCc4ccc(C(F)(F)F)cc4)CC3)c2n1 [844-TFM]
- bactericidal activity in planktonic cultures [1]: bactericidal
- effect on supercoiling activity [2]: No inhibition
